Legend:
eastern black nightshade = test: Test C pre-/postemergence herbicide test; format: in vivo, Solanum ptycanthum; conditions: for Plant response rating (0 = no effect, 100 = complete control), Nightshade / Plant response rating, Nightshade: preemergence
How it was run: (§1)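 Pre/post spray; non-phytotoxic solvent + surfactant. Post-timing 1–4 leaves, 2–18 cm. Read-out: visual % control vs untreated, day 12–14, greenhouse.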

kochia = test: Test C pre-/postemergence herbicide test; format: in vivo, Kochia scoparia; conditions: for Plant response rating (0 = no effect, 100 = complete control), Kochia / Plant response rating, Kochia: preemergence
How it was run: as §1

johnsongrass = test: Test C pre-/postemergence herbicide test; format: in vivo, Sorghum halepense; conditions: for Plant response rating (0 = no effect, 100 = complete control), Johnsongrass / Plant response rating, Johnsongrass: preemergence
How it was run: as §1

woolly cupgrass = test: Test C pre-/postemergence herbicide test; format: in vivo, Eriochloa villosa; conditions: for Plant response rating (0 = no effect, 100 = complete control), Cupgrass, Woolly / Plant response rating, Cupgrass, Woolly: preemergence
How it was run: as §1

corn = test: Test C pre-/postemergence herbicide test; format: in vivo, Zea mays; conditions: for Plant response rating (0 = no effect, 100 = complete control), Corn / Plant response rating, Corn: preemergence
How it was run: as §1

lambsquarters = test: Test C pre-/postemergence herbicide test; format: in vivo, Chenopodium album; conditions: for Plant response rating (0 = no effect, 100 = complete control), Lambsquarters / Plant response rating, Lambsquarters: preemergence
How it was run: as §1

cocklebur = test: Test C pre-/postemergence herbicide test; format: in vivo, Xanthium strumarium; conditions: for Plant response rating (0 = no effect, 100 = complete control), Cocklebur / Plant response rating, Cocklebur: preemergence
How it was run: as §1

rice = test: Test C flooded paddy test; format: in vivo, Oryza sativa; conditions: for Plant response rating, Rice: 500 g ai/ha, visual rating after 12 to 14 days
How it was run: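 Plants were grown to the 1- to 4-leaf stage (2–18 cm) and then treated postemergence, or grown to the 2-leaf stage for the flooded paddy test. They were held in a greenhouse for 12 to 14 days and then scored by eye against controls, where 0 is no effect and 100 is complete control.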

Surinam grass = test: Test C pre-/postemergence herbicide test; format: in vivo, Urochloa decumbens; conditions: for Plant response rating (0 = no effect, 100 = complete control), Surinam Grass / Plant response rating, Surinam Grass: preemergence
How it was run: as §1

[1] = test system: common (oilseed) sunflower; test: Test C pre-/postemergence herbicide test; format: in vivo, Helianthus annuus; conditions: for Plant response rating (0 = no effect, 100 = complete control), Sunflower / Plant response rating, Sunflower: preemergence
How it was run: as §1

[2] = 125 g ai/ha, scale 0 (no effect) to 100 (complete control), visual, 12 to 14 days
[3] = Preemergence, 500 g ai/ha, scale 0 to 100, 0 no effect, 100 complete control
[4] = 250 g ai/ha, scale 0 to 100 (0 no effect, 100 complete control), visual, 12 to 14 days
[5] = 125 g ai/ha, scale 0 to 100 (0 no effect, 100 complete control)
[6] = 250 g ai/ha, scale of 0 to 100, 0 is no effect, 100 is complete control
[7] = scale 0 to 100 (0 no effect, 100 complete control)
[8] = 500 g ai/ha, scale 0 to 100 (0 no effect, 100 complete control), visual, 12 to 14 days

## CCn1nc(C(C)(C)C)cc1C(=O)Nc1cc(C#N)ccc1F [Compound 140]
Eastern black nightshade; 62 g ai/ha
  Plant response rating (0 = no effect, 100 = complete control), Nightshade: 0
Eastern black nightshade; [2]
  Plant response rating, Nightshade: 0
Eastern black nightshade; [3]
  Nightshade plant response rating: 95
kochia; 62 g ai/ha
  Plant response rating (0 = no effect, 100 = complete control), Kochia: 70
kochia; [2]
  Plant response rating, Kochia: 75
kochia; [3]
  Kochia plant response rating: 100
johnsongrass; 62 g ai/ha
  Plant response rating (0 = no effect, 100 = complete control), Johnsongrass: 0
johnsongrass; [2]
  Plant response rating, Johnsongrass: 45
johnsongrass; [3]
  Johnsongrass plant response rating: 75
Woolly cupgrass; 62 g ai/ha
  Plant response rating (0 = no effect, 100 = complete control), Cupgrass, Woolly: 0
Woolly cupgrass; [2]
  Plant response rating, Cupgrass, Woolly: 0
Woolly cupgrass; [4]
  Plant response rating, Cupgrass, Woolly: 0
Woolly cupgrass; [3]
  Cupgrass, Woolly plant response rating: 45
corn; 62 g ai/ha
  Plant response rating (0 = no effect, 100 = complete control), Corn: 0
corn; [2]
  Plant response rating, Corn: 0
corn; [4]
  Plant response rating, Corn: 0
corn; [3]
  Corn plant response rating: 0
lambsquarters; 62 g ai/ha
  Plant response rating (0 = no effect, 100 = complete control), Lambsquarters: 75
lambsquarters; [2]
  Plant response rating, Lambsquarters: 85
lambsquarters; [3]
  Lambsquarters plant response rating: 100
cocklebur; 62 g ai/ha
  Plant response rating (0 = no effect, 100 = complete control), Cocklebur: 0
cocklebur; [2]
  Plant response rating, Cocklebur: 0
cocklebur; [4]
  Plant response rating, Cocklebur: 0
cocklebur; [3]
  Cocklebur plant response rating: 0
rice; 62 g ai/ha, scale 0 to 100 (0 no effect, 100 complete control)
  Rice plant response rating: 0
rice; [5]
  Rice plant response rating: 0
rice; [6]
  Rice plant response rating: 0
rice; [7]
  Plant response rating, Rice: 0
Surinam grass; 62 g ai/ha
  Plant response rating (0 = no effect, 100 = complete control), Surinam Grass: 0
Surinam grass; [2]
  Plant response rating, Surinam Grass: 0
Surinam grass; [3]
  Surinam Grass plant response rating: 70
[1]; 62 g ai/ha
  Plant response rating (0 = no effect, 100 = complete control), Sunflower: 0
[1]; [2]
  Plant response rating, Sunflower: 0
[1]; [3]
  Sunflower plant response rating: 0

## CCc1nn(C(C)(C)CC)nc1C(=O)Nc1cccc(C(=O)N(C)C)c1 [Compound 372]
Eastern black nightshade; 62 g ai/ha, scale 0 to 100
  Plant response rating, Nightshade: 85
Eastern black nightshade; 125 g ai/ha
  Plant response rating (0 = no effect, 100 = complete control), Nightshade: 95
Eastern black nightshade; 250 g ai/ha, scale 0-100
  Plant response rating, Nightshade: 100
Eastern black nightshade; [8]
  Plant response rating, Nightshade: 100
kochia; 62 g ai/ha, scale 0 to 100
  Plant response rating, Kochia: 100
kochia; 125 g ai/ha
  Plant response rating (0 = no effect, 100 = complete control), Kochia: 100
kochia; 250 g ai/ha, scale 0-100
  Plant response rating, Kochia: 100
kochia; [8]
  Plant response rating, Kochia: 100
johnsongrass; 62 g ai/ha, scale 0 to 100
  Plant response rating, Johnsongrass: 80
johnsongrass; 125 g ai/ha
  Plant response rating (0 = no effect, 100 = complete control), Johnsongrass: 80
johnsongrass; 250 g ai/ha, scale 0-100
  Plant response rating, Johnsongrass: 90
johnsongrass; [8]
  Plant response rating, Johnsongrass: 90
Woolly cupgrass; 62 g ai/ha, scale 0 to 100
  Plant response rating, Cupgrass, Woolly: 50
Woolly cupgrass; 125 g ai/ha
  Plant response rating (0 = no effect, 100 = complete control), Cupgrass, Woolly: 60
Woolly cupgrass; 250 g ai/ha, scale 0-100
  Plant response rating, Cupgrass, Woolly: 70
Woolly cupgrass; [8]
  Plant response rating, Cupgrass, Woolly: 100
corn; 62 g ai/ha, scale 0 to 100
  Plant response rating, Corn: 60
corn; 125 g ai/ha
  Plant response rating (0 = no effect, 100 = complete control), Corn: 60
corn; 250 g ai/ha, scale 0-100
  Plant response rating, Corn: 65
corn; [8]
  Plant response rating, Corn: 65
lambsquarters; 62 g ai/ha, scale 0 to 100
  Plant response rating, Lambsquarters: 100
lambsquarters; 125 g ai/ha
  Plant response rating (0 = no effect, 100 = complete control), Lambsquarters: 100
lambsquarters; 250 g ai/ha, scale 0-100
  Plant response rating, Lambsquarters: 100
lambsquarters; [8]
  Plant response rating, Lambsquarters: 100
cocklebur; 62 g ai/ha, scale 0 to 100
  Plant response rating, Cocklebur: 0
cocklebur; 125 g ai/ha
  Plant response rating (0 = no effect, 100 = complete control), Cocklebur: 10
cocklebur; 250 g ai/ha, scale 0-100
  Plant response rating, Cocklebur: 60
cocklebur; [8]
  Plant response rating, Cocklebur: 90
rice; 62 g ai/ha, scale 0 to 100
  Rice plant response rating: 80
rice; [5]
  Rice plant response rating: 85
rice; [6]
  Rice plant response rating: 90
rice; [7]
  Plant response rating, Rice: 90
Surinam grass; 62 g ai/ha, scale 0 to 100
  Plant response rating, Surinam Grass: 50
Surinam grass; 125 g ai/ha
  Plant response rating (0 = no effect, 100 = complete control), Surinam Grass: 85
Surinam grass; 250 g ai/ha, scale 0-100
  Plant response rating, Surinam Grass: 85
Surinam grass; [8]
  Plant response rating, Surinam Grass: 100
[1]; 62 g ai/ha, scale 0 to 100
  Plant response rating, Sunflower: 0
[1]; 125 g ai/ha
  Plant response rating (0 = no effect, 100 = complete control), Sunflower: 0
[1]; 250 g ai/ha, scale 0-100
  Plant response rating, Sunflower: 0
[1]; [8]
  Plant response rating, Sunflower: 60

## CCC1=NN(C(C)(C)C)CC1C(=O)Nc1cc(C(=O)N2CCCC2)ccc1F (racemic) [Compound 341]
Eastern black nightshade; 62 g ai/ha, scale 0 to 100
  Plant response rating, Nightshade: 50
Eastern black nightshade; 125 g ai/ha
  Plant response rating (0 = no effect, 100 = complete control), Nightshade: 55
Eastern black nightshade; 250 g ai/ha, scale 0-100
  Plant response rating, Nightshade: 100
Eastern black nightshade; [8]
  Plant response rating, Nightshade: 100
kochia; 62 g ai/ha, scale 0 to 100
  Plant response rating, Kochia: 80
kochia; 125 g ai/ha
  Plant response rating (0 = no effect, 100 = complete control), Kochia: 100
kochia; 250 g ai/ha, scale 0-100
  Plant response rating, Kochia: 100
kochia; [8]
  Plant response rating, Kochia: 100
johnsongrass; 62 g ai/ha, scale 0 to 100
  Plant response rating, Johnsongrass: 15
johnsongrass; 125 g ai/ha
  Plant response rating (0 = no effect, 100 = complete control), Johnsongrass: 85
johnsongrass; 250 g ai/ha, scale 0-100
  Plant response rating, Johnsongrass: 100
johnsongrass; [8]
  Plant response rating, Johnsongrass: 100
Woolly cupgrass; 62 g ai/ha, scale 0 to 100
  Plant response rating, Cupgrass, Woolly: 80
Woolly cupgrass; 125 g ai/ha
  Plant response rating (0 = no effect, 100 = complete control), Cupgrass, Woolly: 80
Woolly cupgrass; 250 g ai/ha, scale 0-100
  Plant response rating, Cupgrass, Woolly: 100
Woolly cupgrass; [8]
  Plant response rating, Cupgrass, Woolly: 100
corn; 62 g ai/ha, scale 0 to 100
  Plant response rating, Corn: 10
corn; 125 g ai/ha
  Plant response rating (0 = no effect, 100 = complete control), Corn: 60
corn; 250 g ai/ha, scale 0-100
  Plant response rating, Corn: 85
corn; [8]
  Plant response rating, Corn: 90
lambsquarters; 62 g ai/ha, scale 0 to 100
  Plant response rating, Lambsquarters: 100
lambsquarters; 125 g ai/ha
  Plant response rating (0 = no effect, 100 = complete control), Lambsquarters: 100
lambsquarters; 250 g ai/ha, scale 0-100
  Plant response rating, Lambsquarters: 100
lambsquarters; [8]
  Plant response rating, Lambsquarters: 100
cocklebur; 62 g ai/ha, scale 0 to 100
  Plant response rating, Cocklebur: 0
cocklebur; 125 g ai/ha
  Plant response rating (0 = no effect, 100 = complete control), Cocklebur: 10
cocklebur; 250 g ai/ha, scale 0-100
  Plant response rating, Cocklebur: 50
cocklebur; [8]
  Plant response rating, Cocklebur: 100
rice; 62 g ai/ha, scale 0 to 100
  Rice plant response rating: 20
rice; [5]
  Rice plant response rating: 50
rice; [6]
  Rice plant response rating: 60
rice; [7]
  Plant response rating, Rice: 70
Surinam grass; 62 g ai/ha, scale 0 to 100
  Plant response rating, Surinam Grass: 60
Surinam grass; 125 g ai/ha
  Plant response rating (0 = no effect, 100 = complete control), Surinam Grass: 95
Surinam grass; 250 g ai/ha, scale 0-100
  Plant response rating, Surinam Grass: 100
Surinam grass; [8]
  Plant response rating, Surinam Grass: 100
[1]; 62 g ai/ha, scale 0 to 100
  Plant response rating, Sunflower: 0
[1]; 125 g ai/ha
  Plant response rating (0 = no effect, 100 = complete control), Sunflower: 0
[1]; 250 g ai/ha, scale 0-100
  Plant response rating, Sunflower: 50
[1]; [8]
  Plant response rating, Sunflower: 100
